# Measurements taken from patent publication US11254688B2 (Boehringer Ingelheim International GmbH, priority 2018, dated 2022).
# Counter-ions that a name gives are not always drawn.
# Target: T1, hGOAT (Homo sapiens, UniProt Q96T53)
# T1 construct: expressed in transfected cells; host or cells: HEK293 (Hek293 hGOAT/PPGhrl Clone #1B8)
# T1 sequence (Q96T53 1-435): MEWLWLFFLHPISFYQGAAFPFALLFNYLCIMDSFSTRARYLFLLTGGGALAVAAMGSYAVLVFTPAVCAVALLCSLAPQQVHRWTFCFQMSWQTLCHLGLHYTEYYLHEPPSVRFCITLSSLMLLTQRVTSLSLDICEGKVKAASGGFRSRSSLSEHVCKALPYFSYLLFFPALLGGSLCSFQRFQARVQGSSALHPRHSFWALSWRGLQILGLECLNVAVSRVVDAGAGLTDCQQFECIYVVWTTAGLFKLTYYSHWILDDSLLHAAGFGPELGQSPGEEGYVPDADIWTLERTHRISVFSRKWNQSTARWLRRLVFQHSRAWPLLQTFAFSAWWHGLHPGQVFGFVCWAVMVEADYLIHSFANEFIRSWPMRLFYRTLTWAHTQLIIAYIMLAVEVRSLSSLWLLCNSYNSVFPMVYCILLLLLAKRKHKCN
# Experiment: Determination of hGOAT activity in HEK293 cells after incubation with test compound (acyl-ghrelin ELISA)
# Type: cell-based
# Conditions: HEK293 cells stably transfected with preproghrelin and human GOAT; octanoate-BSA 100 μM; 5 hours incubation; acyl-ghrelin in medium by ELISA; 8 compound concentrations
row,SMILES,IC50 [pM]
1,"CNC(=O)c1ccc(Cc2c(C)nc3nonc3c2N)cc1 [Compound 14.18, 4-({7-Amino-5-methyl-[1,2,5]oxadiazolo[3,4-b]pyridin-6-yl}methyl)-N-methylbenzamide]",7770
2,"Cc1nc2nonc2c(N)c1Cc1ccc(Cl)n2cnnc12 [Compound 4.14, 6-({5-Chloro-[1,2,4]triazolo[4,3-a]pyridin-8-yl}methyl)-5-methyl-[1,2,5]oxadiazolo[3,4-b]pyridin-7-amine]",665
3,"Cc1nc2nonc2c(N)c1Cc1ccc(C(C)(C)C(N)=O)nc1 [Compound 19.3, 2-[5-({7-Amino-5-methyl-[1,2,5]oxadiazolo[3,4-b]pyridin-6-yl}methyl)pyridin-2-yl]-2-methylpropanamide]",555
4,"Cc1nc2nonc2c(N)c1Cc1ccnc(Cl)c1 [Compound 4.55, 6-[(2-Chloropyridin-4-yl)methyl]-5-methyl-[1,2,5]oxadiazolo[3,4-b]pyridin-7-amine]",6270
5,"Cc1nc2nonc2c(N)c1Cc1cc(F)c(F)c(F)c1 [Compound 4.52, 5-Methyl-6-[(3,4,5-trifluorophenyl)methyl]-[1,2,5]oxadiazolo[3,4-b]pyridin-7-amine]",1590
6,"CSc1ccc(Cc2c(C)nc3nonc3c2N)cc1 [Compound 4.19, 5-Methyl-6-{[4-(methylsulfanyl)phenyl]methyl}-[1,2,5]oxadiazolo[3,4-b]pyridin-7-amine]",174
7,"Cc1nc2nonc2c(N)c1Cc1ccc(C(C)(C)C(=O)O)nc1 [Compound 19.4, 2-[5-({7-Amino-5-methyl-[1,2,5]oxadiazolo[3,4-b]pyridin-6-yl}methyl)pyridin-2-yl]-2-methylpropanoic Acid]",534
8,"Cc1nc2nonc2c(N)c1Cc1ccc(-c2cn(C)nc2C(F)(F)F)nc1 [Compound 12.7, 5-Methyl-6-({6-[1-methyl-3-(trifluoromethyl)-1H-pyrazol-4-yl]pyridin-3-yl}methyl)-[1,2,5]oxadiazolo[3,4-b]pyridin-7-amine]",1170
9,Cc1nc2nonc2c(N)c1Cc1cccn2c(C(F)(F)F)nnc12 [Compound 4.10],5360
10,"Cc1nc2nonc2c(N)c1Cc1ccc(-c2ccc(C#N)s2)nc1 [Compound 12.5, 5-[5-(7-Amino-5-methyl-[1,2,5]oxadiazolo[3,4-b]pyridin-6-ylmethyl)-pyridin-2-yl]-thiophene-2-carbonitrile]",3660
11,"Cc1nc2nonc2c(N)c1Cc1ccc(C#N)c(OCC(C)(C)O)c1 [Compound 21.6, 4-({7-Amino-5-methyl-[1,2,5]oxadiazolo[3,4-b]pyridin-6-yl}methyl)-2-(2-hydroxy-2-methylpropoxy)benzonitrile]",150
12,"Cc1nc2nonc2c(N)c1Cc1cccn2c(C)nnc12 [Compound 4.9, 5-Methyl-6-({3-methyl-[1,2,4]triazolo[4,3-a]pyridin-8-yl}methyl)-[1,2,5]oxadiazolo[3,4-b]pyridin-7-amine]",4010
13,"Cc1ncc(-c2ccc(Cc3c(C)nc4nonc4c3N)cn2)o1 [Compound 4.22, 5-Methyl-6-{[6-(2-methyl-1,3-oxazol-5-yl)pyridin-3-yl]methyl}-[1,2,5]oxadiazolo[3,4-b]pyridin-7-amine]",4810
14,"Cc1nc2nonc2c(N)c1Cc1ccnc(OC(F)(F)F)c1 [Compound 4.56, 5-Methyl-6-{[2-(trifluoromethoxy)pyridin-4-yl]methyl}-[1,2,5]oxadiazolo[3,4-b]pyridin-7-amine]",519
15,"Cc1nc2nonc2c(N)c1Cc1ccc(Br)c(C#N)c1 [Compound 4.61, 5-({7-Amino-5-methyl-[1,2,5]oxadiazolo[3,4-b]pyridin-6-yl}methyl)-2-bromobenzonitrile]",542
16,"Cc1nc2nonc2c(N)c1Cc1ccc(Cl)nc1C(F)(F)F [Compound 25.3, 6-{[6-Chloro-2-(trifluoromethyl)pyridin-3-yl]methyl}-5-methyl-[1,2,5]oxadiazolo[3,4-b]pyridin-7-amine]",7360
17,"Cc1nc2nonc2c(N)c1Cc1ccc(Cl)c(C(N)=O)c1 [Compound 15.3, 5-({7-Amino-5-methyl-[1,2,5]oxadiazolo[3,4-b]pyridin-6-yl}methyl)-2-chlorobenzamide]",1580
18,"Cc1nc2nonc2c(N)c1Cc1ccnc(C#N)c1 [Compound 4.39, 4-({7-Amino-5-methyl-[1,2,5]oxadiazolo[3,4-b]pyridin-6-yl}methyl)pyridine-2-carbonitrile]",9390
19,"COc1cc(Br)ccc1Cc1c(C)nc2nonc2c1N [Compound 2.3, 6-[(4-Bromo-2-methoxyphenyl)methyl]-5-methyl-[1,2,5]oxadiazolo[3,4-b]pyridin-7-amine]",60

row,SMILES,IC50 [pM]
1,"Cc1nc2nonc2c(N)c1Cc1ccc(C#N)c(OC(F)F)c1 [Compound 4.35, 4-({7-Amino-5-methyl-[1,2,5]oxadiazolo[3,4-b]pyridin-6-yl}methyl)-2-(difluoromethoxy)benzonitrile]",111
2,"Nc1c(Cc2ccc(C(F)(F)F)cc2)c(Br)nc2nonc12 [Compound 24.1, 5-Bromo-6-{[4-(trifluoromethyl)phenyl]methyl}-[1,2,5]oxadiazolo[3,4-b]pyridin-7-amine]",475
3,"Cc1nc2nonc2c(N)c1Cc1ccn2ncnc2c1 [Compound 4.21, 5-Methyl-6-({[1,2,4]triazolo[1,5-a]pyridin-7-yl}methyl)-[1,2,5]oxadiazolo[3,4-b]pyridin-7-amine]",3410
4,"Cc1nc2nonc2c(N)c1Cc1ccc(F)c(Br)c1 [Compound 4.44, 6-(3-Bromo-4-fluoro-benzyl)-5-methyl-[1,2,5]oxadiazolo[3,4-b]pyridin-7-ylamine]",573
5,"Cc1nc2nonc2c(N)c1Cc1cccn2c(C3CC3)nnc12 [Compound 4.13, 6-({3-Cyclopropyl-[1,2,4]triazolo[4,3-a]pyridin-8-yl}methyl)-5-methyl-[1,2,5]oxadiazolo[3,4-b]pyridin-7-amine]",890
6,"Cc1nc2nonc2c(N)c1Cc1ccc(C(=O)N(C)C)cc1 [Compound 14.2, 4-({7-Amino-5-methyl-[1,2,5]oxadiazolo[3,4-b]pyridin-6-yl}methyl)-N,N-dimethylbenzamide]",665
7,"Cc1nc2nonc2c(N)c1Cc1ccc(C#N)cc1 [Compound 2.8, 4-({7-Amino-5-methyl-[1,2,5]oxadiazolo[3,4-b]pyridin-6-yl}methyl)benzonitrile]",416
8,"Cc1nc2nonc2c(N)c1Cc1ccc(C#N)c(OCC(F)(F)F)c1 [Compound 21.1, 4-({7-Amino-5-methyl-[1,2,5]oxadiazolo[3,4-b]pyridin-6-yl}methyl)-2-(2,2,2-trifluoroethoxy)benzonitrile]",99
9,"Cc1nc2nonc2c(N)c1Cc1ccc(Cl)c(Cl)c1 [Compound 4.1, 6-[(3,4-Dichlorophenyl)methyl]-5-methyl-[1,2,5]oxadiazolo[3,4-b]pyridin-7-amine]",246
10,"CN(C)c1nc2nonc2c(N)c1Cc1ccc(C(F)(F)F)cc1 [Compound 24.3, N5,N5-Dimethyl-6-{[4-(trifluoromethyl)phenyl]methyl}-[1,2,5]oxadiazolo[3,4-b]pyridine-5,7-diamine Trifluoroacetic Acid Salt]",6120
11,"Cc1nc2nonc2c(N)c1Cc1ccc(C(=O)NCC2(C)COC2)cc1 [Compound 14.13, 4-({7-Amino-5-methyl-[1,2,5]oxadiazolo[3,4-b]pyridin-6-yl}methyl)-N-[(3-methyloxetan-3-yl)methyl]benzamide]",4990
12,"Nc1c(Cc2ccc(C(F)(F)F)cc2)c(CO)nc2nonc12 [Compound 24.2, (7-Amino-6-{[4-(trifluoromethyl)phenyl]methyl}-[1,2,5]oxadiazolo[3,4-b]pyridin-5-yl)methanol]",5730
13,"COc1cc(C#N)ccc1Cc1c(C)nc2nonc2c1N [Compound 2.4, 4-({7-Amino-5-methyl-[1,2,5]oxadiazolo[3,4-b]pyridin-6-yl}methyl)-3-methoxybenzonitrile]",133
14,"Cc1nc2nonc2c(N)c1Cc1ccc(C#N)c(O[C@H]2CCNC2=O)c1 [Compound 21.3, 4-({7-Amino-5-methyl-[1,2,5]oxadiazolo[3,4-b]pyridin-6-yl}methyl)-2-{[(3S)-2-oxopyrrolidin-3-yl]oxy}benzonitrile]",1580
15,"Cc1nc2nonc2c(N)c1Cc1cccc(OC(F)(F)F)c1 [Compound 4.41, 5-Methyl-6-{[3-(trifluoromethoxy)phenyl]methyl}-[1,2,5]oxadiazolo[3,4-b]pyridin-7-amine]",428
16,"Cc1nc2nonc2c(N)c1Cc1cccc(-c2ccn[nH]2)c1 [Compound 12.1, 5-Methyl-6-{[3-(1H-pyrazol-5-yl)phenyl]methyl}-[1,2,5]oxadiazolo[3,4-b]pyridin-7-amine]",79
17,"Cc1nc2nonc2c(N)c1C(=O)c1ccc(OC(F)(F)F)cc1 [Compound 22.2, 5-Methyl-6-[4-(trifluoromethoxy)benzoyl]-[1,2,5]oxadiazolo[3,4-b]pyridin-7-amine]",2490
18,"Cc1nc2nonc2c(N)c1Cc1ccc(C(=O)NCC2CN(C)CCO2)cc1 (centres unmarked) [Compound 14.3, 4-({7-Amino-5-methyl-[1,2,5]oxadiazolo[3,4-b]pyridin-6-yl}methyl)-N-[(4-methylmorpholin-2-yl)methyl]benzamide]",2930
19,"Cc1nc2nonc2c(N)c1Cc1cc(I)ncc1C(F)(F)F [Compound 4.37, 6-{[2-Iodo-5-(trifluoromethyl)pyridin-4-yl]methyl}-5-methyl-[1,2,5]oxadiazolo[3,4-b]pyridin-7-amine]",534
